Results reported in publication PMC8198750, “Synthesis of Novel Halogenated Heterocycles Based on o-Phenylenediamine and Their Interactions with the Catalytic Subunit of Protein Kinase CK2” (Molecules, 2021).
Like-named read-outs stand apart in the source and are kept apart here.

Tests used:
hCK2α [1] = target: T1, hCK2α (Homo sapiens, UniProt P68400); experiment: nanoDSF thermal shift assay (low-volume differential scanning fluorimetry); format: binding
T1 construct: made in house
Procedure: Binding affinities of the newly synthesized compounds towards hCK2α were assessed with the low-volume differential scanning fluorimetry (nanoDSF). The shift of the temperature of thermal denaturation in the presence of 10-fold excess of a particular ligand relative to the apo form of hCK2α (ΔTm) can be used as a semi-qualitative measure of the binding affinity or inhibitory activity.
hCK2α was expressed and purified according to the method described previously. Thermal stability of 1:10 protein–ligand complexes was monitored on Prometheus (Nanotemper Technologies, München, Germany) using PR-C002 Prometheus NT.48 Standard Capillaries using temperature ramp of 20 to 80 °C with 1 °C/min heating rate. Temperature-induced variation in ratio fluorescence intensity at 330 and 350 nm was globally analyzed using the procedure described before. All experiments were performed in 25 mM Tris–HCl (pH 8, 0.5 M NaCl) with 2% (v/v) DMSO. Protein was kept in constant 2.5 μM concentration.

[2] = RP-HPLC chromatographic hydrophobicity index; format: physicochemical; settings: C18, 2:1 methanol:20 mM aqueous ammonium formate pH 8; τ = (Tret − T0)/T0
Procedure: RP-HPLC method, a fast and efficient alternative for standard logD determination in octan-1-ol/water system, was used to assess the hydrophobicity of all synthesized compounds. This method has been successfully used in our laboratory for halogenated benzotriazole derivatives, including the evaluation of the effect of hydrophobicity on their binding to the catalytic subunit of protein kinase CK2 [24, 43].
Chromatographic hydrophobicity index (log(τ)) was determined with the reverse phase HPLC (RP-HPLC). Column: Nova-pak® C18 4 μm, 4.6 × 250 mm. Eluent: 2:1 methanol: 20 mM aqueous ammonium formate (pH = 8) (v/v). Flow: 0.7 mL/min. Detector wavelength: 280 nm. The individual retention times (Tret) were converted to a hydrophobicity scale according to the formula τ = (Tret − T0)/T0. where the retention time of unretained solvent (T0) was estimated to 300 s.

hCK2α [3] = target: T1, hCK2α; experiment: Inhibitory activity against human CK2α (ADP-Glo kinase assay); format: biochemical; settings: inhibitor 1 nM–1 mM, triplicate
Procedure: The inhibitory effect of 8 selected compounds was monitored based on the luminescence measured with the SpectraMax iD3 Multi-Mode Microplate Reader (Molecular Devices, San Jose, CA, USA), using the previously described method with the aid of ADP-Glo kinase assay (Promega, Walldorf, Germany). Inhibitor concentration varied in the range of 1 nM–1 mM (see Supplementary Figure S38). Each experiment was repeated in triplicate and IC50 values were further estimated globally using the sigmoidal dose-response equation implemented in Origin 9.4 package (www.originlab.com, upgraded 20.07.27).

[4] = test system: epidermoid carcinoma A-431; experiment: MTT cell viability assay, A-431; format: cell-based; settings: Homo sapiens, 72 h
Source text: (§1) The following human cell lines were used in this study: (i) epidermoid carcinoma A-431 (ATCC® CRL-1555), (ii) colorectal carcinoma HCT116 (ATCC® CCL-247), (iii) colorectal carcinoma HCT116p53^−/−, and (iv) normal fibroblasts BJ (ATCC® CRL-2522). The HCT116p53^−/− cell line was a kind gift from professor Bert Vogelstein (John Hopkin’s University, Baltimore, MD, USA). The remaining cell lines were purchased from ATCC (Manassas, VA, USA) or Sigma Aldrich by Merck (Darmstadt, Germany).
(§2) Cells were cultured in Dulbecco’s modified Eagle’s or Roswell Park Memorial Institute (RPMI)-1640 medium supplemented with 10% or 15% fetal bovine serum (Gibco by Thermo Fisher Scientific, Waltham, MA, USA) under standard culture conditions (37 °C, 5% CO2) in a humidified incubator with atmospheric oxygen.
(§3) The viability of cells was assayed by measuring the conversion of MTT (3-(4,5-dimethylthiazol-2-yl)-2,5-diphenyltetrazolium bromide) to the formazan (the rate of this reaction is proportional to the number of surviving cells). Cells were seeded in a 96-well plate at a density of 1500–2500 cells per well, 24 h before treatment. Treatment with tested compounds and cisplatin (0.25–160 µM) was performed for 72 h. MTT stock solution (Sigma-Aldrich) was added at the final concentration 0.5 mg/mL. After 2 h of incubation at 37 °C, water-insoluble formazan was dissolved in a lysis buffer containing 20% SDS, 50% DMF, 2.5% hydrochloric acid, and 2.5% acetic acid. Optical densities were measured at 570 nm using a scanning multi-well spectrophotometer ([…] Detection Platform; Beckman Coulter, Brea, CA, USA).

normal fibroblasts BJ = experiment: MTT cell viability assay, BJ; format: cell-based, human; settings: for IC50: Homo sapiens, Fibroblast, MTT, 72 h
Source text: as §1, §2, §3

[5] = test system: colorectal carcinoma HCT116; experiment: MTT cell viability assay, HCT116; format: cell-based; settings: Homo sapiens, HCT-116, 72 h, read-out: IC50 HTC116
Source text: as §1, §2, §3

[6] = test system: colorectal carcinoma HCT116p53−/−; experiment: MTT cell viability assay, HCT116p53−/−; format: cell-based; settings: Homo sapiens, 72 h
Source text: as §1, §2, §3

[7] = 10-fold excess of ligand (1:10 protein–ligand), 2.5 μM protein, relative to apo hCK2α, 2% DMSO, pH 8
[8] = 10-fold excess of ligand (1:10 protein–ligand), 2.5 μM protein, relative to apo hCK2α, 2% DMSO, pH 8, read-out: ΔTm

T1 sequence (P68400 whole entry): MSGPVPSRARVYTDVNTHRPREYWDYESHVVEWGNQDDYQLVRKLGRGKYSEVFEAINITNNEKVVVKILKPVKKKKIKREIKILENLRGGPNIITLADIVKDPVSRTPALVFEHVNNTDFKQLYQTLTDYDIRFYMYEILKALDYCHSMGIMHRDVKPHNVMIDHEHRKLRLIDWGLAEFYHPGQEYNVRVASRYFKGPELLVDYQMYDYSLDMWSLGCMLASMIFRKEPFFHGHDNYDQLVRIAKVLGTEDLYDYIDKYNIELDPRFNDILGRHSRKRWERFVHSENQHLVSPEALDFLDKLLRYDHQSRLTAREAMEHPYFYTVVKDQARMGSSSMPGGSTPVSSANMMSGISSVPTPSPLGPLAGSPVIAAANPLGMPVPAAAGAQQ

Molecule	log(τ) HPLC-derived hydrophobicity index [2]	ΔTm at 25 µM (hCK2α [1]; [8]) [°C]	further results
6,7-dichloroquinoxaline-1,3-diol [Compound 7c]	−0.227		ΔTm (hCK2α [1]; [7]): 1.2 ± 0.1 °C
6,7-difluoroquinoxaline-1,3-diol [Compound 7b]	−0.548		ΔTm (hCK2α [1]; [7]): 0.2 ± 0.1 °C
Nc1ccccc1N [Compound 1a, benzo-1,2-diamine]	−0.651		ΔTm at 25 µM (hCK2α [1]; pH 8, read-out: ΔTm): -0.1 ± 0.1 °C
Nc1cc(F)c(F)cc1N [Compound 1b]	−0.591	-0.1 ± 0.1	
Nc1cc(Cl)c(Cl)cc1N [Compound 1c]	−0.298	0.1 ± 0.1	
Nc1cc(Br)c(Br)cc1N [Compound 1d]	−0.208	0.2 ± 0.1	
Nc1cc(I)c(I)cc1N [Compound 1e, 4,5-diiodobenzene-1,2-diamine]	−0.093	1.7 ± 0.1	
c1ccc2nsnc2c1 [Compound 2a, 2,1,3-benzothiadiazole]	0.009	0	
Fc1cc2nsnc2cc1F [Compound 2b, 5,6-difluoro-2,1,3-benzothiadiazole]	0.169	-0.3 ± 0.1	
Clc1cc2nsnc2cc1Cl [Compound 2c, 5,6-dichloro-2,1,3-benzothiadiazole]	0.179	0.2 ± 0.1	
Brc1cc2nsnc2cc1Br [Compound 2d, 5,6-dibromo-2,1,3-benzothiadiazole]	0.461	0.2 ± 0.1	
Ic1cc2nsnc2cc1I [Compound 2e, 5,6-diiodo-2,1,3-benzothiadiazole]	0.468	0.2 ± 0.1	
FC(F)(F)c1nc2ccccc2[nH]1 [Compound 3a, 2-trifluoromethylo-1H-benzimidazole]	−0.270		ΔTm at 25 µM (hCK2α [1]; pH 8, read-out: ΔTm): 0.4 ± 0.1 °C
Fc1cc2nc(C(F)(F)F)[nH]c2cc1F [Compound 3b, 5,6-difluoro-2-trifluoromethylo-1H-benzimidazole]	−0.095	0.8 ± 0.1	
FC(F)(F)c1nc2cc(Cl)c(Cl)cc2[nH]1 [Compound 3c, 5,6-dichlorlo-2-trifluoromethylo-1H-benzimidazole]	0.234	1.2 ± 0.1	
FC(F)(F)c1nc2cc(I)c(I)cc2[nH]1 [Compound 3e, 5,6-diiodo-2-trifluoromethylo-1H-benzimidazole]	0.409	4.3 ± 0.1	IC50 (hCK2α [3]): 7 ± 4 µM; IC50 [4]: 7 ± 1 µM; IC50 (normal fibroblasts BJ): 55 ± 5 µM; selectivity index (normal fibroblasts BJ; relative to BJ fibroblasts): ~ 10; IC50 [5]: 6 ± 1 µM; IC50 [6]: 6 ± 1 µM
OCc1nc2ccccc2[nH]1 [Compound 4a, 2-hydroxymethylo-1H-benzimidazole]	−0.579	0.4 ± 0.1	
OCc1nc2cc(Cl)c(Cl)cc2[nH]1 [Compound 4c, 5,6-dichloro-2-hydroxymethylo-1H-benzimidazole]	−0.079	0.7 ± 0.1	
OCc1nc2cc(Br)c(Br)cc2[nH]1 [Compound 4d, 5,6-dibromo-2-hydroxymethylo-1H-benzimidazole]	0.010	1.9 ± 0.1	IC50 (hCK2α [3]): > 1000 µM; IC50 [4]: 45 ± 5 µM; IC50 (normal fibroblasts BJ): 145 ± 15 µM; IC50 [5]: 21 ± 1 µM; IC50 [6]: 28 ± 3 µM
OCc1nc2cc(I)c(I)cc2[nH]1 [Compound 4e, 5,6-diiodo-2-hydroxymethylo-1H-benzimidazole]	0.088	3.7 ± 0.1	IC50 (hCK2α [3]): 25 ± 5 µM; IC50 [4]: 39 ± 10 µM; IC50 (normal fibroblasts BJ): 15 ± 2 µM; IC50 [5]: 20 ± 2 µM; IC50 [6]: 23 ± 2 µM
O=c1[nH]c2ccccc2[nH]1 [Compound 5a, 1H-benzo[d]imidazol-2(3H)-one]	−0.591	0.8 ± 0.1	
O=c1[nH]c2cc(Cl)c(Cl)cc2[nH]1 [Compound 5c, 5,6-dichloro-1H-benzo[d]imidazol-2(3H)-one]	−0.084	0.8 ± 0.1	
O=c1[nH]c2cc(Br)c(Br)cc2[nH]1 [Compound 5d, 5,6-dibromo-1H-benzo[d]imidazol-2(3H)-one]	0.003	1.8 ± 0.1	IC50 (hCK2α [3]): > 1000 µM; IC50 [4]: 180 ± 40 µM; IC50 (normal fibroblasts BJ): 40 ± 5 µM; IC50 [5]: 18 ± 3 µM; IC50 [6]: 22 ± 3 µM
O=c1[nH]c2cc(I)c(I)cc2[nH]1 [Compound 5e, 5,6-diiodo-1H-benzo[d]imidazol-2(3H)-one]	0.082	2.4 ± 0.1	IC50 (hCK2α [3]): 13 ± 2 µM
c1ccc2nccnc2c1 [Compound 6a, quinoxaline]	−0.295	-0.1 ± 0.1	
Clc1cc2nccnc2cc1Cl [Compound 6c, 6,7-dichloroquinoxaline]	0.495	0.1 ± 0.1	
Brc1cc2nccnc2cc1Br [Compound 6d, 6,7-dibromoquinoxaline]	0.588	0.4 ± 0.1	
Ic1cc2nccnc2cc1I [Compound 6e, 6,7-diiodoquinoxaline]	0.618	0.4 ± 0.1	
quinoxaline-1,3-diol [Compound 7a]	−0.699		ΔTm (hCK2α [1]; [7]): 0.1 ± 0.1 °C
